Reference: patent US20240299373A1, “IMPROVED USE OF TRADIPITANT IN MOTION SICKNESS” (Vanda Pharmaceuticals Inc., priority 2023, published 2024)
Marks after values point to notes of the source that are not given here.

Experiments:
[1] = target: T1, NK-1 receptor (Meriones unguiculatus, UniProt Q5DUB1); test: NK-1 agonist (GR73632, icv)-induced foot-tapping behavior in gerbils; assay type: in vivo; details: gerbil, 1 mg/kg
T1 construct: centrally acting NK-1 receptor antagonist in vivo in the gerbil; from tissue; host or cells: brain of living Mongolian gerbils
Method: Male Mongolian gerbils (Harlan Sprague Dawley, Indianapolis, IN) weighing 26 to 40 grams are administered the selective neurokinin-1 receptor agonist GR73632 (3 pmol) via direct, vertical, free-hand intracerebroventricular (icy) injection to a depth of 4.5 mm below bregma with a cuffed 27-gauge needle attached to a 50 μl Hamilton syringe. Immediately after injection, animals are placed individually into isolated chambers with pressure-sensitive velocimeter platform floors (San Diego Instruments acoustic startle apparatus) that detect and quantify vibration. The San Diego Instruments “SR” DOS-based computer program is used on a PC to record the number of foot-taps over the following 6 to 10 minutes, beginning 30 seconds after the floor is lightly tapped. […] The total number and average intensity of events over the duration is determined. Total number of taps is analyzed with one-way ANOVA and post-hoc Dunnett's test using JMP statistical software.
A dose-response curve (with doses of 0.3, 1, 3 and 10 pmols, icy) is initially generated with the NK-1 agonist GR73632.
NK-1 antagonists are tested for their ability to attenuate GR73632-induced foot tapping. NK-1 antagonists are administered (po) via oral feeding tube at doses and time points specified in each experiment. […]
NK-1 antagonists are administered at multiple doses (at least 3; one dose per animal) and response to GR73632 is measured. […]

[2] = tested on: apomorphine-induced emesis; test: Emetic challenge study (apomorphine-induced emesis) in beagle dogs; assay type: in vivo, beagle dog; details: 3.0 mg/kg oral, apomorphine 0.1 mg/kg iv 2 hours later, five dogs; APO control 28
Method: Over the five (5) weeks of the study, each animal receives each of the treatments, but only one per week. The purpose of this study is to determine if tradipitant suppresses apomorphine-induced emesis.
The mid dose of tradipitant is the approximate half-log interval between the low and high doses.
All animals are dosed over a period of five (5) weeks, with each dog receiving one of five different treatments on each day of dosing.
All dogs are fasted overnight prior to each treatment day and then fed approximately one (1) hour after oral dosing (approximately one (1) hour prior to administration of apomorphine). Individual doses are adjusted weekly for changes in body weight.
The dose regimen consists of a 5×5 Latin square design, in which each subject receives 1 dose or dose combination per week (6 day washout) as shown in Table 3 below.

[3] = tested on: vomiting due to motion sickness; details: crossover study; cited from earlier work

T1 sequence (Q5DUB1 whole entry): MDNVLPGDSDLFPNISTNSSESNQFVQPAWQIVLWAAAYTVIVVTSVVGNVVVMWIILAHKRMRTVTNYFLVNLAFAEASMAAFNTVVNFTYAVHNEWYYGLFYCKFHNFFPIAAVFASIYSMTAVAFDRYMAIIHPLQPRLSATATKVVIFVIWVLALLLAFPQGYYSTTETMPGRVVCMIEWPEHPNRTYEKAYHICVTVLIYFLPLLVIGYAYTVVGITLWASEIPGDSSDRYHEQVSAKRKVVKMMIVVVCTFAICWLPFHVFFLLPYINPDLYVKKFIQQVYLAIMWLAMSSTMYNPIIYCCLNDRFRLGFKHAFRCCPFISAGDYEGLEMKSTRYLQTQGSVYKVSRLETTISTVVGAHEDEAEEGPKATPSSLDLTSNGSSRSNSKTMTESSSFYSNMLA

Row | time after administration up to which foot-tapping behavior is inhibited [1] | Structure (SMILES) | Total No. Emetic Episodes [2] | dogs in which occurrence of vomiting was reduced as compared to placebo [3]
1 | up to 24 hours | C[C@@H](O[C@H]1OCCN(Cc2n[nH]c(=O)[nH]2)[C@H]1c1ccc(F)cc1)c1cc(C(F)(F)F)cc(C(F)(F)F)c1 [Aprepitant, reference compound] | 1** | –
2 | – | COc1ccc(C(C)(C)C)cc1CN[C@H]1C2CCN(CC2)[C@H]1C(c1ccccc1)c1ccccc1 [Maropitant] | – | over 75%
